Test results reported in PubChem BioAssay AID330 (DTP/NCI, 2004).
Values joined by “and” are separate entries in the source; they are usually repeats but may differ in a detail not shown here. Equal entries are not always repeated. Toxic doses and inconclusive results are not listed.

System: P388 leukemia ip, CD2F1 mice, survival T/C
Test: NCI In Vivo Anticancer Drug Screen. Data for tumor model P388 Leukemia (intraperitoneal) in CD2F1 (CDF1) mice
Settings: endpoint: median survival time, higher = longer survival
In short: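 Mice carrying the transplanted tumor received test compound or vehicle. Survival was recorded in each group, and the value is the treated-group measurement divided by that of the vehicle-treated control group.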

[1] = dose: 12.5 mg/kg/injection, schedule: Q01DX009 (ip), vehicle: saline
[2] = dose: 25.0 mg/kg/injection, schedule: Q01DX009 (ip), vehicle: saline
[3] = dose: 50.0 mg/kg/injection, schedule: Q01DX009 (ip), vehicle: saline
[4] = dose: 100.0 mg/kg/injection, schedule: Q01DX009 (ip), vehicle: saline
[5] = dose: 200.0 mg/kg/injection, schedule: Q01DX009 (ip), vehicle: saline
[6] = dose: 25.0 mg/kg/injection, schedule: Q01DX001 (ip), vehicle: Klucel (hydroxypropylcellulose) (HPC)
[7] = dose: 50.0 mg/kg/injection, schedule: Q01DX001 (ip), vehicle: Klucel (hydroxypropylcellulose) (HPC)
[8] = dose: 100.0 mg/kg/injection, schedule: Q01DX001 (ip), vehicle: Klucel (hydroxypropylcellulose) (HPC)
[9] = dose: 60.0 mg/kg/injection, schedule: Q01DX005 (ip), vehicle: Klucel (hydroxypropylcellulose) (HPC)
[10] = dose: 120.0 mg/kg/injection, schedule: Q01DX005 (ip), vehicle: Klucel (hydroxypropylcellulose) (HPC)
[11] = dose: 240.0 mg/kg/injection, schedule: Q01DX005 (ip), vehicle: Klucel (hydroxypropylcellulose) (HPC)
[12] = dose: 12.5 mg/kg/injection, schedule: Q01DX001 (ip), vehicle: Klucel (hydroxypropylcellulose) (HPC)
[13] = dose: 60.0 mg/kg/injection, schedule: Q01DX005 (ip), vehicle: saline with Tween-80
[14] = dose: 50.0 mg/kg/injection, schedule: Q01DX005 (ip), vehicle: Klucel (hydroxypropylcellulose) (HPC)
[15] = dose: 100.0 mg/kg/injection, schedule: Q01DX005 (ip), vehicle: Klucel (hydroxypropylcellulose) (HPC)

## Oc1c(CNCCCN2CCCC2)cc(Cl)c2cccnc12
[1]
  T/C: 102 % of control and 107 % of control
[2]
  T/C: 91 % of control and 96 % of control
[3]
  T/C: 88 % of control and 95 % of control
[4]
  T/C: 110 % of control and 112 % of control

## C/C=C(\C)C(N)=O
[3]
  T/C: 90 % of control
[4]
  T/C: 100 % of control
[5]
  T/C: 95 % of control

## O=C(C1=Cc2ccccc2OC1)N1CCN(c2cccc(Cl)c2)CC1
dose: 100.0 mg/kg/injection, schedule: Q04DX003 (ip), vehicle: saline with Tween-80
  T/C: 98 % of control
dose: 200.0 mg/kg/injection, schedule: Q04DX003 (ip), vehicle: saline with Tween-80
  T/C: 102 % of control
dose: 400.0 mg/kg/injection, schedule: Q04DX003 (ip), vehicle: saline with Tween-80
  T/C: 93 % of control

## O=C(CCCCC(=O)NO)NO
dose: 50.0 mg/kg/injection, schedule: Q01DX009 (ip), vehicle: Klucel (hydroxypropylcellulose) (HPC)
  T/C: 102 % of control
dose: 100.0 mg/kg/injection, schedule: Q01DX009 (ip), vehicle: Klucel (hydroxypropylcellulose) (HPC)
  T/C: 105 % of control
dose: 200.0 mg/kg/injection, schedule: Q01DX009 (ip), vehicle: Klucel (hydroxypropylcellulose) (HPC)
  T/C: 105 % of control

## Nc1ccc(C(=O)Oc2ccc(OC(=O)c3ccc(N)cc3)cc2)cc1
[6]
  T/C: 99 % of control
[7]
  T/C: 96 % of control
[8]
  T/C: 101 % of control

## C/C(=N\N=Nc1ccc(N(C)C)cc1)c1ccccc1
dose: 60.0 mg/kg/injection, schedule: Q01DX005 (ip), vehicle: Klucel + Tween-80
  T/C: 100 % of control
dose: 120.0 mg/kg/injection, schedule: Q01DX005 (ip), vehicle: Klucel + Tween-80
  T/C: 99 % of control

## CCOC(=O)C1=C(c2ccccc2)C2OC1C(COC(=O)NC)=C2COC(=O)NC (configuration not stated)
dose: 12.5 mg/kg/injection, schedule: Q01DX009 (ip), vehicle: distilled water + Tween-80
  T/C: 96 % of control
dose: 25.0 mg/kg/injection, schedule: Q01DX009 (ip), vehicle: distilled water + Tween-80
  T/C: 93 % of control
dose: 50.0 mg/kg/injection, schedule: Q01DX009 (ip), vehicle: distilled water + Tween-80
  T/C: 87 % of control
dose: 100.0 mg/kg/injection, schedule: Q01DX009 (ip), vehicle: distilled water + Tween-80
  T/C: 87 % of control
dose: 200.0 mg/kg/injection, schedule: Q01DX009 (ip), vehicle: distilled water + Tween-80
  T/C: 99 % of control

## Nc1nc(N)c2cc(S(=O)(=O)c3nc(-c4ccccc4)cs3)ccc2n1
[9]
  T/C: 98 % of control
[10]
  T/C: 98 % of control
[11]
  T/C: 105 % of control

## CNc1ccc(OC)cc1
dose: 100.0 mg/kg/injection, schedule: Q04DX003 (ip), vehicle: other
  T/C: 100 % of control
dose: 200.0 mg/kg/injection, schedule: Q04DX003 (ip), vehicle: other
  T/C: 90 % of control
dose: 400.0 mg/kg/injection, schedule: Q04DX003 (ip), vehicle: other
  T/C: 109 % of control

## COC1(OC)C(C)C(C#N)(C#N)C1(OC)OC (configuration not stated)
[9]
  T/C: 100 % of control
[10]
  T/C: 106 % of control

## O=C1CC(c2ccc(Cl)cc2)C(c2ccc(Cl)cc2)C1=O (configuration not stated)
dose: 6.25 mg/kg/injection, schedule: Q01DX001 (ip), vehicle: Klucel (hydroxypropylcellulose) (HPC)
  T/C: 107 % of control
[12]
  T/C: 112 % of control
[6]
  T/C: 106 % of control and 86 % of control
[8]
  T/C: 99 % of control

## O=C(c1ccccc1)C(c1ccccc1)n1nc2c(c1-c1ccccc1)CCC2 (configuration not stated)
[12]
  T/C: 100 % of control
[6]
  T/C: 95 % of control
[7]
  T/C: 98 % of control
[8]
  T/C: 100 % of control

## Cc1cn(C2CC(F)C(CO)O2)c(=O)[nH]c1=O (configuration not stated)
[1]
  T/C: 106 % of control
[2]
  T/C: 101 % of control and 103 % of control
[3]
  T/C: 100 % of control and 110 % of control
[4]
  T/C: 101 % of control and 119 % of control
[5]
  T/C: 101 % of control
dose: 400.0 mg/kg/injection, schedule: Q01DX009 (ip), vehicle: saline
  T/C: 116 % of control

## CCN(CC)CCNc1cc2c(c3c(=O)c4ccccc4sc13)CCCC2
dose: 7.8 mg/kg/injection, schedule: Q01DX005 (ip), vehicle: other
  T/C: 101 % of control
dose: 15.6 mg/kg/injection, schedule: Q01DX005 (ip), vehicle: other
  T/C: 113 % of control
dose: 31.3 mg/kg/injection, schedule: Q01DX005 (ip), vehicle: other
  T/C: 104 % of control
dose: 62.5 mg/kg/injection, schedule: Q01DX005 (ip), vehicle: other
  T/C: 113 % of control
dose: 125.0 mg/kg/injection, schedule: Q01DX005 (ip), vehicle: other
  T/C: 101 % of control

## [N-]=[N+]=Nc1c2c(nc3ccccc13)CCCC2
[13]
  T/C: 103 % of control
dose: 120.0 mg/kg/injection, schedule: Q01DX005 (ip), vehicle: saline with Tween-80
  T/C: 105 % of control

## COc1c(CCl)cc(-c2sc3ccccc3c(=O)c2CCl)cc1CCl
dose: 25.0 mg/kg/injection, schedule: Q01DX005 (ip), vehicle: saline with Tween-80
  T/C: 106 % of control and 93 % of control
dose: 50.0 mg/kg/injection, schedule: Q01DX005 (ip), vehicle: saline with Tween-80
  T/C: 100 % of control and 114 % of control and 97 % of control
dose: 100.0 mg/kg/injection, schedule: Q01DX005 (ip), vehicle: saline with Tween-80
  T/C: 100 % of control and 106 % of control
dose: 200.0 mg/kg/injection, schedule: Q01DX005 (ip), vehicle: saline with Tween-80
  T/C: 108 % of control and 124 % of control

## N#Cc1c(=O)[nH]c(=O)n2c1[nH]c1ccccc12
dose: 15.0 mg/kg/injection, schedule: Q01DX005 (ip), vehicle: saline with Tween-80
  T/C: 102 % of control
dose: 30.0 mg/kg/injection, schedule: Q01DX005 (ip), vehicle: saline with Tween-80
  T/C: 104 % of control
[13]
  T/C: 105 % of control and 88 % of control

## O=C1CSC(c2cccs2)N1c1nncs1 (configuration not stated)
[9]
  T/C: 100 % of control
[10]
  T/C: 100 % of control
[11]
  T/C: 172 % of control

## CCCCCCCCCCC(O)C1CCC(C2CCC(C(O)C(=O)CCCCCCCCCCCC3CC(C)OC3=O)O2)O1 (configuration not stated)
dose: 0.35 mg/kg/injection, schedule: Q01DX005 (ip), vehicle: Klucel (hydroxypropylcellulose) (HPC)
  T/C: 107 % of control and 115 % of control
dose: 0.7 mg/kg/injection, schedule: Q01DX005 (ip), vehicle: Klucel (hydroxypropylcellulose) (HPC)
  T/C: 112 % of control and 119 % of control
dose: 1.4 mg/kg/injection, schedule: Q01DX005 (ip), vehicle: Klucel (hydroxypropylcellulose) (HPC)
  T/C: 120 % of control

## O=C1/C(=C\c2ccccc2O)Cc2ccccc21
[14]
  T/C: 107 % of control
[15]
  T/C: 103 % of control
dose: 200.0 mg/kg/injection, schedule: Q01DX005 (ip), vehicle: Klucel (hydroxypropylcellulose) (HPC)
  T/C: 91 % of control

## CC1CN(C(=O)OCC23COC4(C)CCC(C)(OC2)N34)CC(C)O1 (configuration not stated)
dose: 50.0 mg/kg/injection, schedule: Q01DX005 (ip), vehicle: saline
  T/C: 100 % of control
dose: 100.0 mg/kg/injection, schedule: Q01DX005 (ip), vehicle: saline
  T/C: 100 % of control
dose: 200.0 mg/kg/injection, schedule: Q01DX005 (ip), vehicle: saline
  T/C: 100 % of control

## O=NN(CCCl)C(=O)Nc1cc(=O)[nH]c(SCc2ccccc2)n1
dose: 10.06 mg/kg/injection, schedule: Q04DX002 (ip), vehicle: Klucel (hydroxypropylcellulose) (HPC)
  T/C: 151 % of control
dose: 40.25 mg/kg/injection, schedule: Q04DX002 (ip), vehicle: Klucel (hydroxypropylcellulose) (HPC)
  T/C: 158 % of control
dose: 80.5 mg/kg/injection, schedule: Q04DX002 (ip), vehicle: Klucel (hydroxypropylcellulose) (HPC)
  T/C: 178 % of control
dose: 161.0 mg/kg/injection, schedule: Q04DX002 (ip), vehicle: Klucel (hydroxypropylcellulose) (HPC)
  T/C: 150 % of control and 158 % of control
dose: 322.0 mg/kg/injection, schedule: Q04DX002 (ip), vehicle: Klucel (hydroxypropylcellulose) (HPC)
  T/C: 101 % of control

## O=C1c2ccccc2C(=O)c2c(NCCNCCNCCO)ccc(NCCNCCNCCO)c21
dose: 8.0 mg/kg/injection, schedule: Q01DX009 (ip), vehicle: acid diluted with saline
  T/C: 94 % of control
dose: 16.0 mg/kg/injection, schedule: Q01DX009 (ip), vehicle: acid diluted with saline
  T/C: 101 % of control
dose: 25.0 mg/kg/injection, schedule: Q01DX009 (ip), vehicle: water
  T/C: 111 % of control and 120 % of control
dose: 32.0 mg/kg/injection, schedule: Q01DX009 (ip), vehicle: acid diluted with saline
  T/C: 96 % of control
dose: 50.0 mg/kg/injection, schedule: Q01DX009 (ip), vehicle: water
  T/C: 111 % of control
dose: 64.0 mg/kg/injection, schedule: Q01DX009 (ip), vehicle: acid diluted with saline
  T/C: 98 % of control

## O=C1S/C(=C2\C(=O)N(CN3CCOCC3)c3ccccc32)C(=O)N1CN1CCOCC1
[9]
  T/C: 100 % of control
[10]
  T/C: 108 % of control
[11]
  T/C: 108 % of control

## CC(C)(C)N1CCC1
[14]
  T/C: 100 % of control
[15]
  T/C: 99 % of control
